According to US10238658B2, “1-pyrazolyl-3-(4-((2-anilinopyrimidin-4-yl) oxy) napththalen-1-yl) ureas as p38 MAP kinase inhibitors” (Respivert Limited, priority 2011, dated 2019):

Assays:
HRV16 = HRV16 induced CPE in MRC5 cells; type: cell-based; conditions: Human rhinovirus sp., HRV16, MRC5, at 0.04 μg/mL; read-out: HRV CPE (MRC5) % inhibition
Method: The supernatants were aspirated, and then fresh media added followed by incubation for 4 days. Where appropriate, cells were pre-incubated with compound or DMSO for 2 hr, and the compounds and DMSO added again after washout of the virus.
The percentage inhibition for each well was calculated. The IC50 value was calculated from the concentration-response curve generated by the serial dilutions of the test compounds.

IL-8 [1] = test: LPS-induced IL-8 release in d-U937 cells; type: cell-based; conditions: Homo sapiens, dU937, dU937 cells
Method: (§1) U937 cells, a human monocytic cell line, were differentiated into macrophage-type cells by incubation with PMA (100 ng/mL) for 48 to 72 hr. Cells were pre-incubated with final concentrations of test compound for 2 hr and were then stimulated with LPS (0.1 μg/mL; from E. Coli: O111:B4, Sigma) for 4 hr. The supernatant was collected for determination of TNFα and IL-8 concentrations by sandwich ELISA (Duo-set, R&D systems). […] The relative 50% effective concentration (REC50) was determined from the resultant concentration-response curve. The inhibition of IL-8 production was calculated at each concentration of test compound by comparison with vehicle control.

TNFα [2] = test: LPS-induced TNFα release in d-U937 cells; type: cell-based; conditions: Homo sapiens, dU937, dU937 cells; relative to 10 μg/mL BIRB796; read-out: LPS Induced Release TNFα REC50 (dU937)
Method: as §1

TNFα [3] = test: LPS-induced TNFα release in THP-1 cells; type: cell-based; conditions: Homo sapiens, THP-1, THP1 cells
Method: THP-1 cells, a human monocytic cell line, were stimulated with 3 μg/mL of LPS (from E. Coli; 0111:B4, Sigma) for 4 hr and the supernatant collected for determination of the TNFα concentration by sandwich ELISA (Duo-set, R&D systems). The inhibition of TNFα production was calculated at each concentration by comparison with vehicle control.

IL-8 [4] = test: Rhinovirus-induced IL-8 release in BEAS2B cells; type: cell-based; conditions: Homo sapiens, BEAS-2B, at 0.04 μg/mL; read-out: HRV IL-8 (BEAS2B) % inhibition
Method: Human rhinovirus RV16 was obtained from the American Type Culture Collection (Manassas, Va.). Viral stocks were generated by infecting Hela cells with HRV until 80% of the cells were cytopathic.
BEAS2B cells were infected with HRV at an MOI of 5 and incubated for 2 hr at 33° C. with gentle shaking for to promote absorption. The cells were then washed with PBS, fresh media added and the cells were incubated for a further 72 hr. The supernatant was collected for assay of IL-8 concentrations using a Duoset ELISA development kit (R&D systems, Minneapolis, Minn.). […]

RSV A2 = test: In vitro RSV virus load (F-protein ELISA) in primary bronchial epithelial cells; type: cell-based, respiratory syncytical virus; conditions: human respiratory syncytial virus, Primary bronchial epithelial cell; at 0.04 μg/mL; read-out: RSV (F-Elisa) (HBEC) % inhibition
Method: Normal human bronchial epithelial cells (NHBEC) grown in 96 well plates were infected with RSV A2 (Strain A2, HFA, Salisbury, UK) at an MOI of 0.001 in the LHC8 Media:RPMI-1640 (50:50) containing 15 mM magnesium chloride and incubated for 1 hr at 37° C. for adsorption. The cells were then washed with PBS (3×200 μL), fresh media (200 μL) was added and incubation continued for 4 days. Where appropriate, cells were pre-incubated with the compound or DMSO for 2 hr, and then added again after washout of the virus.
The cells were fixed with 4% formaldehyde in PBS solution (50 μL) for 20 min, washed with washing buffer (3×200 μL; PBS including 0.5% BSA and 0.05% Tween-20) and incubated with blocking solution (5% condensed milk in PBS) for 1 hr. Cells were then washed with washing buffer (3×200 μL) and incubated for 1 hr at RT with anti-RSV (2F7) F-fusion protein antibody (40 μL; mouse monoclonal, lot 798760, Cat. No. ab43812, Abcam) in 5% BSA in PBS-tween). After washing, cells were incubated with an HRP-conjugated secondary antibody solution (50 μL) in 5% BSA in PBS-Tween (lot 00053170, Cat.No. P0447, Dako) and then TMB substrate (50 μL; substrate reagent pack, lot 269472, Cat. No. DY999, R&D Systems, Inc.) was added. This reaction was stopped by the addition of 2N H2SO4 (50 μL) and the resultant signal was determined colorimetrically (OD: 450 nm with a reference wavelength of 655 nm) in a microplate reader (Varioskan® Flash, ThermoFisher Scientific).
After washing with washing buffer, 1% SDS in distilled water (100 μL) was added to each well, and plates were shaken lightly on the shaker for 1 hr prior to reading the absorbance at 595 nm. The measured OD450-655 readings were corrected to the cell number by dividing the OD450-655 by the OD595 readings. The percentage inhibition for each well was calculated and the IC50 value was calculated from the concentration-response curve generated from the serial dilutions of compound.

PBMC = test: Cell mitosis assay; type: cell-based; conditions: Homo sapiens, read-out: Mitosis Assay % inhibition in PBMC Cells at concn 5 μg/mL
Method: Peripheral blood mononucleocytes (PBMCs) from healthy subjects were separated from whole blood (Quintiles, London, UK) using a density gradient (Histopaque®-1077, Sigma-Aldrich, Poole, UK). The PBMCs (3 million cells per sample) were subsequently treated with 2% PHA (Sigma-Aldrich, Poole, UK) for 48 hr, followed by a 20 hr exposure to varying concentrations of test compounds. At 2 hr before collection, PBMCs were treated with demecolcine (0.1 μg/mL; Invitrogen, Paisley, UK,) to arrest cells in metaphase. To observe mitotic cells, PBMCs were permeabilised and fixed by adding Intraprep (50 μL; Beckman Coulter, France), and stained with anti-phospho-histone 3 ([…]; #9701; Cell Signalling, Danvers, Mass.) and propidium iodide (1 mg/mL; Sigma-Aldrich, Poole, UK,) as previously described (Muehlbauer P. A. and Schuler M. J., Mutation Research, 2003, 537:117-130). Fluorescence was observed using an ATTUNE flow cytometer (Invitrogen, Paisley, UK), gating for lymphocytes.

TNFα [5] = test: LPS-stimulated TNFα production in sputum macrophages from COPD; type: cell-based; conditions: Homo sapiens, Macrophage; read-out: TNFα E max, sputum macrophage
Method: (§2) Patients with COPD were inhaled with a nebulised solution of 3% (w/v) hypertonic saline using an ultrasonic nebuliser (Devilbiss, Carthage, Mo.) with tidal breathing for 5 min. This procedure was repeated a maximum of three times until enough sputum was obtained. The sputum samples were homogenized and mixed vigorously using a vortex mixer in 0.02% v/v dithiothreitol (DTT) solution. The samples were re-suspended in PBS (40 mL) followed by centrifugation at 1500 rpm at 4° C. for 10 min to obtain sputum cell pellets. The pellets were washed twice with PBS (40 mL). The sputum cells were then re-suspended in macrophage serum-free medium (macrophage-SFM, Life technologies, Paisley, UK; to achieve 2×10^6/well in a 24 well plate) containing 20 U/mL penicillin, 0.02 mg/mL streptomycin and 5 μg/mL amphotericin B and seeded on high bound 96-well plate, followed by incubation for 2 hr at 37° C. and at 5% CO2 to allow the macrophages to attach to the bottom of the plate. The cells on the plate were washed with fresh macrophage-SFM (200 μL/well) to remove neutrophils and other contaminated cells. The adherent cells (mainly sputum macrophages) on the plate were used for further analysis. Sputum induction and isolation were conducted in Quintiles Drug Research Unit at Guys Hospital and ethics approval and written informed consent was obtained by Quintiles.
(§3) Where appropriate, 1 μL of a solution containing either the test compound or reference article at the stated concentrations or alternatively 1 μL of DMSO as the vehicle control was added to each well (200 μL in media) and the cells were incubated for 2 hr. […] After washing with 200 uL wash buffer per well, the beads were resuspended in sheath fluid (150 μL) and analyzed immediately. The level of each analyte in the supernatant was calculated using Xcel Fit software with a 4 or 5-parameter equation using each standard curve. The inhibitions of each cytokine production were calculated at each concentration by comparison with vehicle control. The IC50 values were determined from concentration-inhibition curves using XL-Fit (idbs, Guildford, UK)

IL-8 [6] = test: TNFα-stimulated IL-8 production in primary bronchial epithelial cells from COPD; type: cell-based; conditions: Homo sapiens, Epithelial cell; read-out: IL-8 E max, bronchial epithelial cell
Method: (§4) Primary airway epithelial cells obtained from patients with COPD were purchased from Asterand (Royston, UK), and maintained in bronchial epithelial cell growth media that was prepared by mixing together LHC8 (lnvitrogen) (500 mL), with LHC9 (Invitrogen) (500 mL) and 3 μL of retinoic acid solution (5 mg/mL in neat DMSO. The media was removed by aspiration and fresh BEGM (200 μL) was added to each well. Where appropriate, 1 μL of a solution of the test compound at the state concentrations or 1 μL of DMSO as the vehicle control was added and the cells were incubated for 2 hr. The cells were stimulated with TNFα (50 μL; final concentration 50 ng/mL) and then incubated for 4 hr at 37° C. and 5% CO2. The supernatant was then collected and kept at −20° C.
(§5) The levels of IL-6 and IL-8 were determined by ELISA using R&D Systems' Human IL-6 and IL-8 Duoset® Elisa Kits. The inhibition of IL-6 and IL-8 production was calculated at each concentration by comparison with vehicle control.

IL-6 [7] = test: LPS-stimulated IL-6 production in sputum macrophages from COPD; type: cell-based; conditions: Homo sapiens, Macrophage; read-out: IL-6 E max, sputum macrophage
Method: Patients with COPD were inhaled with a nebulised solution of 3% (w/v) hypertonic saline using an ultrasonic nebuliser (Devilbiss, Carthage, Mo.) with tidal breathing for 5 min. This procedure was repeated a maximum of three times until enough sputum was obtained. The sputum samples were homogenized and mixed vigorously using a vortex mixer in 0.02% v/v dithiothreitol (DTT) solution. The samples were re-suspended in PBS (40 mL) followed by centrifugation at 1500 rpm at 4° C. for 10 min to obtain sputum cell pellets. The pellets were washed twice with PBS (40 mL). […]
as §3

IL-8 [8] = test: LPS-stimulated IL-8 production in sputum macrophages from COPD; type: cell-based; conditions: Homo sapiens, Macrophage; read-out: IL-8 E max, sputum macrophage
Method: as §2, §3

MIP1α = test: LPS-stimulated MIP1α production in sputum macrophages from COPD; type: cell-based; conditions: Homo sapiens, Macrophage; read-out: MIP1α E max, sputum macrophage
Method: as §2, §3

A/J mice = test: Cigarette smoke model: macrophage and neutrophil accumulation in BALF; type: in vivo, mouse; conditions: 1.75 μg/mouse (35 μL, bid, i.n.)
Method: A/J mice (males, 5 weeks old) were exposed to cigarette smoke (4% cigarette smoke, diluted with air) for 30 min/day for 11 days using a Tobacco Smoke Inhalation Experiment System for small animals (Model SIS-CS; Sibata Scientific Technology, Tokyo, Japan). […] At 12 hr after the last dosing, each of the animals was anesthetized, the trachea cannulated and bronchoalveolar lavage fluid (BALF) was collected. The numbers of alveolar macrophages and neutrophils were determined by FACS analysis (EPICS® ALTRA II, Beckman Coulter, Inc., Fullerton, Calif., USA) using anti-mouse MOMA2 antibody (macrophage) or anti-mouse 7/4 antibody (neutrophil). BALF was centrifuged and the supernatant was collected. The level of keratinocyte chemoattractant (KC; CXCL1) in BALF was quantitated using a Quentikine® mouse KC ELISA kit (R&D systems, Inc., Minneapolis, Minn., USA).

IL-6 [9] = test: TNFα-stimulated IL-6 production in primary bronchial epithelial cells from COPD; type: cell-based; conditions: Homo sapiens, Epithelial cell; read-out: IL-6 E max, bronchial epithelial cell
Method: as §4, §5

SMILES | inhibition at 0.04 µg/mL (HRV16) [%] | IC50 (IL-8 [1]) [nM] | EC50 (TNFα [2]) [nM] | IC50 (TNFα [3]) [nM] | inhibition at 0.04 µg/mL (IL-8 [4]) [%] | inhibition at 0.04 µg/mL (RSV A2) [%] | inhibition at 5 µg/mL (PBMC) [%] | Emax at 0.1 µg/mL (TNFα [5]) [%] | Emax at 0.1 µg/mL (IL-8 [6]) [%] | Emax at 0.1 µg/mL (IL-6 [7]) [%] | Emax at 0.1 µg/mL (IL-8 [8]) [%] | Emax at 0.1 µg/mL (MIP1α) [%] | macrophage accumulation into airways, cigarette smoke model (A/J mice) | neutrophil accumulation into airways, cigarette smoke model (A/J mice) | Emax at 0.1 µg/mL (IL-6 [9]) [%]
Cc1ccc(-n2nc(C(C)(C)C)cc2NC(=O)Nc2ccc(Oc3ccnc(Nc4ccccc4C)n3)c3ccccc23)cc1 [Example 21, 1-(3-(tert-butyl)-1-(p-tolyl)-1H-pyrazol-5-yl)-3-(4-((2-(o-tolylamino)pyrimidin-4-yl)oxy)naphthalen-1-yl)urea] | 3 | > 1680 | 9.7 | 17 | 100 | 66 |  |  |  |  |  |  |  |  | 
CCOc1ccc(Nc2nccc(Oc3ccc(NC(=O)Nc4cc(C(C)(C)C)nn4-c4ccc(C)cc4)c4ccccc34)n2)cc1 [Example 22, 1-(3-(tert-butyl)-1-(p-tolyl)-1H-pyrazol-5-yl)-3-(4-((2-((4-ethoxyphenyl)amino)pyrimidin-4-yl)oxy)naphthalen-1-yl)urea] | 48 | > 1590 | 17 | 30 | 100 | 78 | 70.8 |  |  |  |  |  |  |  | 
Cc1ccc(-n2nc(C(C)(C)C)cc2NC(=O)Nc2ccc(Oc3ccnc(Nc4ccc(F)cc4)n3)c3ccccc23)cc1 [Example 23, 1-(3-(tert-butyl)-1-(p-tolyl)-1H-pyrazol-5-yl)-3-(4-((2-((4-fluorophenyl)amino)pyrimidin-4-yl)oxy)naphthalen-1-yl)urea] | 18 | 22 | 8 | 24 | 100 | 41 |  |  |  |  |  |  |  |  | 
CCC(=O)O[C@]1(C(=O)SCF)[C@H](C)C[C@H]2[C@@H]3C[C@H](F)C4=CC(=O)C=C[C@]4(C)[C@@]3(F)[C@@H](O)C[C@@]21C [Fluticasone Propionate, fluticasone propionate, reference compound] |  |  |  |  |  |  |  | 18 | 17 | 26 | 19 | 20 | did not inhibit | did not inhibit | 38
